# Experimental data reported in PubChem BioAssay AID1996.
# Settings: buffer; pH 7.4; 200.0 µM
row,solubility kinetic [µg/mL],Compound
1,> 47.2,O=C(Nc1ccccc1C(=O)N1CCCCC1)c1cccs1
2,> 69.8,O=C(CN1C(=O)c2ccccc2S1(=O)=O)Nc1cccc(S(=O)(=O)N2CCOCC2)c1
3,> 40,CCN(CC)C(=S)Nc1ccc(C(=O)OC)cc1
4,> 47.2,COc1cccc(N2CCN(C(=O)c3cc(C)oc3C)CC2)c1
5,13.5,Fc1cccc(CN2CCC(Cc3ccccc3)CC2)c1
6,> 32.7,O=C(NCc1ccc(F)cc1)c1ccc[nH]1
7,> 41.7,Nc1nc(N)n(-c2ccccc2)c(=Nc2ccccc2)n1
8,37.3,COc1ccc(S(=O)(=O)Nc2cc(S(=O)(=O)N3CCOCC3)ccc2OC)cc1
9,> 42.8,N#Cc1cccc(NC(=O)CSc2cccc[n+]2[O-])c1
10,> 41.1,COc1cccc2[nH]c(C(=O)NCC3CCCO3)cc12 (stereo unspecified)
11,22.9,CCCCCCNC1=NCCS1
12,> 47.8,O=C1NC2(CCCC2)C(=O)N1Cc1cc(=O)n2ccsc2n1
13,> 55.7,CCN1CCN(C(=O)C23CCC(C)(C(=O)C2Br)C3(C)C)CC1 (stereo unspecified)
14,> 45.1,O=C(NCc1ccccc1)C1CC(=O)N(C2CCCCC2)C1 (stereo unspecified)
15,3.5,CC(=O)N/C(N)=N/c1nc(=O)c2ccccc2s1
16,< 0.4,COc1cc(CSc2nc(-c3ccccc3)cc(=O)[nH]2)cc(OC)c1
17,> 47.9,Cl.O=C(CN1CCCC1)Nc1ccc(Br)cc1
18,> 34.4,CNC(=O)C(=O)NCCCN1CCOCC1
19,> 42.3,Cc1ccc[n+](CC(=O)c2ccc(Cl)cc2)c1.[Cl-]
20,33.1,N#Cc1cccc(NC(=O)CC2CCCC2)c1
21,> 48,Cn1c(=O)oc2cc(S(=O)(=O)Nc3ccc(O)cc3)ccc21
22,< 0.7,O=C(CC12CC3CC(CC(C3)C1)C2)Nc1c(F)cccc1F
23,0.3,CC(C)Cc1nc2sc3c(SCC(N)=O)ncnc3c2c2c1CCC2
24,> 46.7,COc1cccc(C2=NOC(C(=O)NCc3cccnc3)C2)c1 (stereo unspecified)

row,solubility kinetic [µg/mL],Compound
1,> 49.3,COc1ccccc1Nc1nc(N)nc(CN2CCC(C)CC2)n1
2,> 50.3,Cc1ccc(NC(=O)CN2C(=O)NC(C)(CC(C)C)C2=O)cc1F (stereo unspecified)
3,29,Brc1ccc(OCCN2CCOCC2)cc1
4,27.8,CN(Cc1ccccc1)c1ncc(C=O)s1
5,12.4,COc1ccc(NC(=O)CCCCC(=O)Nc2ccc(OC)cc2OC)c(OC)c1
6,39.7,COc1ccccc1CNC(=O)COC(=O)c1nccnc1N
7,33.3,CCOc1ccc(NC(=S)Nc2cccnc2)cc1
8,> 35.3,Cc1csc(NC(=O)c2ccc(=O)[nH]c2)n1
9,41.4,CN1CCCN(C(=O)c2ccc(Br)cc2)CC1
10,29.2,CCN(CC)Cc1ccccn1.Cl
11,> 42.1,CCS(=O)(=O)Nc1cc2c3c(c1)CCN3C(=O)CC2
12,> 39.2,Cc1ccccc1OCC(=O)N1CCCCCCC1
13,> 31.2,O=C1CSC(=Nc2ccc(O)cc2)N1
14,< 0.7,Cc1cc(S(=O)(=O)N2CCc3ccccc3C2)ccc1F
15,> 60.2,O=C(O)c1ccccc1-c1ccccc1C(=O)Nc1ccc(OC(F)(F)F)cc1
16,> 48.2,Cc1ccc([N+](=O)[O-])c(OCCCN2C(=O)NC(C)(C)C2=O)c1
17,> 44.5,CN1CCC(N(C)C(=O)COc2ccccc2Cl)CC1
18,52,O=C(O)CSCC(=O)NCc1c(Cl)cccc1Oc1ccccc1
19,> 42.6,Cc1nn(C)c(C)c1NC(=O)COc1ccccc1C#N
20,4.4,O=C(CCCCC(=O)Nc1ccc(F)cc1F)Nc1ccc(F)cc1F
21,> 51.5,Cc1cc(C)cc(NC(=S)NC2CC3CCCC(C2)N3C2CC2)c1 (stereo unspecified)
22,> 65.2,COc1ccc(NC(=O)COC(=O)c2cc(S(=O)(=O)N3CCCC3)ccc2O)cc1
23,28.8,N#C/C(=C\c1ccc2c(c1)OCCO2)C(=O)Nc1nccs1
24,4.4,Cc1ccc(C)c(C(=O)COC(=O)c2c(-c3ccccc3)noc2C)c1

row,solubility kinetic [µg/mL],Compound
1,> 35.8,CC1CCCCN1C(=S)NCc1ccco1 (stereo unspecified)
2,> 42.9,CC(=O)Nc1ccc(NC(=O)CCc2ccc(C)o2)cc1
3,11.2,Cc1ccccc1CNC(=O)CN1C(=O)c2ccccc2S1(=O)=O
4,> 47.3,CCCCC1=NN(C(=O)c2ccncc2)C(O)(C(F)(F)F)C1 (stereo unspecified)
5,50.3,O=C(CSc1ccc([N+](=O)[O-])cc1)OCC(=O)N1CCCC1=O
6,> 44.6,O=C(COC(=O)CCc1ccccc1)NCc1ccccc1
7,3.5,COc1cccc(-c2nc(-c3ccncc3)no2)c1
8,5.7,C=CCOn1c(=O)c(-c2ccc(C)cc2)[n+]([O-])c2ccccc21
9,> 35.3,CC1(c2ccc([N+](=O)[O-])cc2)NC(=O)NC1=O (stereo unspecified)
10,46.4,Cc1cc(C)c2sc(NC(=O)CN3C(=O)CCC3=O)nc2c1
11,12.5,CC(C)(C)c1ccc(C(=O)NC(=O)COC(=O)c2ccc(Br)o2)cc1
12,9.7,CS(=O)(=O)N1CCN(c2ccc([N+](=O)[O-])c3cccnc23)CC1
13,16.7,CCc1nc2sc3c(=O)[nH]cnc3c2c2c1CSC(C)(C)C2
14,2.6,COc1ccccc1NCC(=O)c1ccc(C)c(C)c1
15,2.5,CC(NC(=O)C(=O)NCc1cccs1)c1ccccc1 (stereo unspecified)
16,21.7,Cc1ccc(NC(=O)CNC(=O)c2cccs2)c(O)c1
17,> 53.4,CC(=O)Nc1ccc(NC(=O)c2cc(-n3cnnc3)ccc2Cl)cc1
18,48.3,Cc1cc(C(=O)CN2C(=O)NC(CCS(C)(=O)=O)C2=O)c(C)n1C1CC1 (stereo unspecified)
19,50.5,CCc1ccccc1NC(=S)N(CCN(C)C)C(C)c1ccco1 (stereo unspecified)
20,17.3,Cc1cc(C)c2c(=O)cc(C(F)(F)F)oc2n1
21,> 42.7,CC(OC(=O)c1ccc(Cl)nc1)C(=O)NC(C)(C)C (stereo unspecified)
22,8.2,CCc1ccc(N2CN=c3s/c(=C\c4ccccc4)c(=O)n3C2)cc1
23,32.9,Cc1ccc(C(=O)Nc2cccnc2Cl)cc1Cl
24,46.8,Cc1cccn2c(=O)cc(COC(=O)C(C)Oc3ccccc3)nc12 (stereo unspecified)

row,solubility kinetic [µg/mL],Compound
1,0.2,COCc1cc(=O)[nH]c(/N=C(\N)Nc2ccc(Cl)c(Cl)c2)n1
2,36.7,CN(Cc1nc(-c2ccccc2)no1)C1CCOCC1
3,12.2,Cc1cc(C)c(C)c(S(=O)(=O)NCC(=O)Nc2ccccc2F)c1C
4,13.1,N#C/C(=C\c1cccnc1)c1ccc([N+](=O)[O-])cc1
5,1.2,CCC(C)Nc1nc(N)c([N+](=O)[O-])c(Nc2cc(OC)ccc2OC)n1 (stereo unspecified)
6,> 46.1,O=C(Cc1ccccc1)c1ccccc1C(=O)N1CCCCC1
7,27,Nc1ccc(C(=O)OCc2nc3ccccc3s2)cc1
8,14.9,N#Cc1c(-c2ccncc2)c2c([nH]c1=O)-c1ccccc1OC2
9,> 37.7,COc1cccc(C(=O)N2CCOCC2)c1OC
10,48,CN1CCN(c2nc3ccccn3c(=O)c2C=C(C#N)C#N)CC1
11,> 71.2,Br.COc1ccccc1N1CCN(CCCCN2C(=O)c3ccccc3C2=O)CC1
12,16,Cc1cc(=O)[nH]c2ccc(S(=O)(=O)N3CCOCC3)cc12
13,3.9,Cc1ccccc1Oc1ccccc1N
14,> 39.7,CCc1nc2sc3c(c2c(=O)n1CCO)CCC3
15,23.8,O=C(O)c1ccccc1NCc1cccs1
16,> 48.2,CSc1ccccc1NS(=O)(=O)c1cccc2nonc12
17,> 31.2,Cc1cccc(NC(=S)N(C)C)c1C
18,> 46.8,O=C(O)CSc1cccnc1Sc1ccc(Cl)cc1
19,39.5,O=C(O)c1cccc([N+](=O)[O-])c1C(=O)Nc1cccc2ccccc12
20,> 44.1,O=C(O)CCn1c(=S)n(CCC(=O)O)c2ccccc21
21,> 46.9,COc1ccc(S(=O)(=O)NC2CCCC2)cc1NC(C)=O
22,> 26,CC(=O)CC(C)(C)NC(C)=S
23,19.4,O=[N+]([O-])c1ccc2oc(C(O)c3cccc(Cl)c3)cc2c1 (stereo unspecified)
24,> 51.4,COc1cccc(NC(=O)CSc2nnc(-c3cccnc3)o2)c1

row,solubility kinetic [µg/mL],Compound
1,> 50.8,COc1ccc(C(=O)NC(=S)N2CC(C)OC(C)C2)cc1OC (stereo unspecified)
2,> 50.6,CN(CC(=O)NCc1cccnc1)S(=O)(=O)c1ccc(F)cc1
3,> 46.3,CC(=O)N1CCCc2cc(S(=O)(=O)N3CCCC3)ccc21
4,2.5,O=C(CNc1cc(S(=O)(=O)N2CCOCC2)ccc1N1CCOCC1)Nc1cccc(C(F)(F)F)c1
5,> 57.7,O=C(CSc1nnc(Nc2ccccc2)s1)NC1CCS(=O)(=O)C1 (stereo unspecified)
6,35.1,Cc1cc(C)cc(NC(=S)N2CC(C)OC(C)C2)c1 (stereo unspecified)
7,> 48.7,COc1ccc(Cl)cc1NC(=O)CSc1cccc[n+]1[O-]
8,< 0.5,CCc1cc2cc(C)cc(C)c2nc1Cl
9,> 56.5,C/C(Cl)=C\C[N+](C)(C)CC(=O)OCCc1ccccc1.[Br-]
10,35.9,CCN(CC)c1ccc(N=CN2CCOCC2)cc1
11,73.2,CCCC1(CCC)NC(=O)N(CC(=O)Nc2ccc(Cl)c(S(=O)(=O)N3CCOCC3)c2)C1=O
12,> 39.2,Cc1ccc2nc(SCC(=O)NC3CC3)[nH]c2c1
13,26.9,Cc1ccc(C(=O)NC(=S)NCc2cccnc2)cc1C
14,2.2,O=C(COC(=O)COc1ccccc1)Nc1ccc(Br)cc1Br
15,> 54.4,Cc1cc(=O)[nH]c(SCC(=O)N2CCN(C(=O)c3ccco3)CC2)n1
16,> 47.6,CCc1cccc(NC(=O)CCCN2C(=O)NC(C)(C)C2=O)c1
17,0.7,C(/C=C/c1ccccn1)=C\c1ccccc1
18,4.2,COc1ccc(/C(N)=N/OC(=O)CCC2CCCC2)cc1
19,35.8,O=C1ON=C(c2ccccc2)/C1=C/c1cccnc1
20,3.9,CC(C)(Oc1ccc(Cl)cc1)C(=O)NC1CCCCC1
21,> 49,COc1ccc(N(C(C)C(=O)N2CCCC2)S(C)(=O)=O)cc1 (stereo unspecified)
22,> 44.3,N#Cc1ccc(OCC(=O)OCC(=O)c2ccccc2)cc1

row,Compound,solubility kinetic [µg/mL]
1,COP(=O)(NC(=O)C(Cl)(Cl)Cl)OC,> 40.6
2,O=C1/C(=C\c2ccc(Cl)cc2Cl)N2CCC1CC2,8.9
3,Clc1ccccc1C1NCc2ccccc2-n2cccc21 (stereo unspecified),1.4
